# Measured values published in EPA's ToxRefDB 2.
# Columns and labels:
# rat [1] = conditions: Multigenerational reproductive toxicity study, sprague dawley, Oral, Feed, dose end: 2 generation
# rat [2] = conditions: Prenatal developmental toxicity study, other, Oral, Gavage/Intubation, dose end: 16 GD
# mouse [3] = conditions: Prenatal developmental toxicity study, other, Oral, Gavage/Intubation, dose end: 15 GD
# rat [4] = conditions: Combined chronic toxicity/carcinogenicity, sprague dawley, Oral, Feed, dose end: 104 week, group: systemic
# mouse [5] = conditions: Combined chronic toxicity/carcinogenicity; cd1; Oral; Feed; dose end: 104 week; group: systemic; systemic / in life observation / body weight / body weight gain + systemic / in life observation / clinical signs / lacrimation + systemic…
# dog = conditions: Chronic toxicity, beagle, Oral, Feed, dose end: 52 week, group: systemic
# rabbit = conditions: Prenatal developmental toxicity study, new zealand white, Oral, Gavage/Intubation, dose end: 19 GD
# [6] = group: offspring, systemic / in life observation / body weight / offspring (pup) weight gain + developmental / offspring survival late / [other] / [other]
# [7] = group: offspring, systemic / in life observation / body weight / offspring (pup) weight gain + developmental / offspring survival late / [other] / [other] + …
# [8] = group: parental, systemic / pathology microscopic / eye / cataract + systemic / in life observation / body weight / body weight gain + systemic / in life …
# [9] = group: parental, systemic / pathology microscopic / eye / cataract + systemic / in life observation / clinical signs / tongue ulcers
# [10] = group: developmental, developmental / developmental malformation / bone / incomplete ossification + developmental / developmental malformation / bone / manus …
# [11] = group: maternal, systemic / in life observation / body weight / body weight gain + systemic / in life observation / food consumption / food consumption
# [12] = group: maternal, systemic / in life observation / body weight / body weight gain + systemic / in life observation / food consumption / food consumption + …
# [13] = group: maternal, systemic / in life observation / food consumption / food consumption
# [14] = group: developmental, developmental / developmental malformation / bone / [other] + developmental / developmental malformation / eye / open eye + developmental / …
# [15] = group: developmental, developmental / developmental malformation / bone / [other] + developmental / developmental malformation / heart / defect a-v septum + …
# [16] = group: maternal, systemic / in life observation / clinical signs / abnormal posture + systemic / in life observation / clinical signs / drooping eyelids (…
# [17] = group: maternal, systemic / in life observation / clinical signs / piloerection + systemic / in life observation / clinical signs / respiration (rales) + …
# [18] = systemic / pathology microscopic / eye / opacity
# [19] = systemic / pathology microscopic / eye / opacity + systemic / organ weight / kidney / absolute + systemic / organ weight / kidney / relative…
# [20] = group: developmental, developmental / developmental malformation / bone / incomplete ossification
# [21] = group: developmental, developmental / developmental malformation / bone / incomplete ossification + developmental / developmental malformation / bone / full …
structure (smiles),measurement,setting,value
[Br-].[Br-].c1cc[n+]2c(c1)-c1cccc[n+]1CC2 [Diquat dibromide],NEL,rat [1]; [6],4 mg/kg/day
same,NOAEL,rat [1]; [6],4 mg/kg/day
same,LEL,rat [1]; [7],12 mg/kg/day
same,LOAEL,rat [1]; [7],12 mg/kg/day
same,NEL,rat [1]; [8],0.8 mg/kg/day
same,NOAEL,rat [1]; [8],0.8 mg/kg/day
same,LEL,rat [1]; [9],4 mg/kg/day
same,LOAEL,rat [1]; [9],4 mg/kg/day
same,LEL,rat [2]; [10],40 mg/kg/day
same,LOAEL,rat [2]; [10],40 mg/kg/day
same,NEL,rat [2]; [10],12 mg/kg/day
same,NOAEL,rat [2]; [10],12 mg/kg/day
same,LOAEL,rat [2]; [11],12 mg/kg/day
same,NOAEL,rat [2]; [12],4 mg/kg/day
same,LEL,rat [2]; [13],4 mg/kg/day
same,NEL,rat [2]; [13],< 4 mg/kg/day
same,LOAEL,mouse [3]; [14],2 mg/kg/day
same,NOAEL,mouse [3]; [14],1 mg/kg/day
same,LEL,mouse [3]; [15],1 mg/kg/day
same,NEL,mouse [3]; [15],< 1 mg/kg/day
same,LOAEL,mouse [3]; [16],2 mg/kg/day
same,NOAEL,mouse [3]; [16],1 mg/kg/day
same,LEL,mouse [3]; [17],1 mg/kg/day
same,NEL,mouse [3]; [17],< 1 mg/kg/day
same,LOAEL,rat [4]; systemic / pathology microscopic / eye / cataract,0.58 mg/kg/day
same,NOAEL,rat [4]; systemic / pathology microscopic / eye / cataract + systemic / in life observation / body weight / body weight gain + systemic / pathology …,0.19 mg/kg/day
same,LEL,rat [4]; [18],0.24 mg/kg/day
same,NEL,rat [4]; [18],< 0.24 mg/kg/day
same,LEL,mouse [5],12 mg/kg/day
same,LOAEL,mouse [5],12 mg/kg/day
same,NEL,mouse [5],3.56 mg/kg/day
same,NOAEL,mouse [5],3.56 mg/kg/day
same,LOAEL,dog; systemic / pathology microscopic / eye / opacity + systemic / organ weight / epididymis / relative to body weight,2.5 mg/kg/day
same,LEL,dog; systemic / pathology microscopic / eye / opacity + systemic / organ weight / epididymis / relative to body weight + systemic / pathology …,2.5 mg/kg/day
same,NEL,dog; [19],0.5 mg/kg/day
same,NOAEL,dog; [19],0.5 mg/kg/day
same,LEL,rabbit; [20],1 mg/kg/day
same,NEL,rabbit; [20],< 1 mg/kg/day
same,LOAEL,rabbit; [21],10 mg/kg/day
same,NOAEL,rabbit; [21],3 mg/kg/day
same,LEL,rabbit; [11],3 mg/kg/day
same,LOAEL,rabbit; [11],3 mg/kg/day
same,NEL,rabbit; [12],1 mg/kg/day
same,NOAEL,rabbit; [12],1 mg/kg/day
